Laboratory results published in ChEMBL document CHEMBL1129861, “SAR for MHC class II binding tetrapeptides: Correlation with potential binding site” (Bioorg Med Chem Lett, 1997).
Residues, ends and D or L forms follow the SMILES beside them. *: point of attachment. Ethoxycarbonyl = CCOC(=O)*

Experiments:
[1] = target: HLA-DRB1*01:01; assay: Inhibitory concentration to inhibit the binding of biotinylated rat myelin basic protein peptide (RMBP90-102) against DR1 allele of class II MHC for 20 min
[2] = target: HLA-DRB1*01:01; assay: Inhibitory concentration required to inhibit the binding of biotinylated rat myelin basic protein peptide (RMBP90-102) against DR1 allele of class II for 5 hr
[3] = species: Rattus norvegicus; assay: Inhibitory concentration of compound to inhibit the binding of biotinylated rat myelin basic protein peptide (RMBP90-102) against DR4 allele of class II for 20 min; format: functional
[4] = species: Rattus norvegicus; assay: Inhibitory concentration of compound to inhibit the binding of biotinylated rat myelin basic protein peptide (RMBP90-102) against DR4 allele of class II for 5 hr; format: functional
[5] = species: Rattus norvegicus; assay: Inhibitory concentration of compound to inhibit the binding of biotinylated rat myelin basic protein peptide (RMBP90-102) against DR1 allele of class II for 45 min; format: functional

Row | SMILES | IC50 [1] [nM] | IC50 [2] [nM] | IC50 [3] [nM] | IC50 [4] [nM] | IC50 [5] [nM]
1 | CCOC(=O)N[C@H](Cc1ccc(OC)cc1)C(=O)N[C@H](C(=O)N[C@@H](C)C(=O)N[C@@H](CC(C)C)C(N)=O)C(C)C | 46 | 180 |  |  | 
2 | CCOC(=O)N[C@H](CC(=O)c1ccccc1)C(=O)N[C@H](C(=O)N[C@@H](C)C(=O)N[C@@H](CC(C)C)C(N)=O)C(C)C | 5700 | 45000 |  |  | 
3 | CCOC(=O)N[C@H](Cc1cccnc1)C(=O)N[C@H](C(=O)N[C@@H](C)C(=O)N[C@@H](CC(C)C)C(N)=O)C(C)C | 5300 | 28000 |  |  | 
4 | CCOC(=O)N[C@@H](Cc1ccccc1)C(=O)N[C@H](C(=O)N[C@@H](C)C(=O)N[C@@H](CC(=O)O)C(N)=O)C(C)C (Ethoxycarbonyl-FVAD-NH2) |  |  | 1200 | 50000 | 
5 | CCOC(=O)N[C@@H](Cc1ccccc1)C(=O)N[C@H](C(=O)N[C@@H](C)C(=O)N[C@@H](CC(C)C)C(N)=O)C(C)C (Ethoxycarbonyl-FVAL-NH2) |  |  | 8200 |  | 

Other lines, results leading:

Row | IC50 [1] [nM] | IC50 [2] [nM] | IC50 [3] [nM] | IC50 [4] [nM] | IC50 [5] [nM] | SMILES
6 | 19 | 73 |  |  |  | CCOC(=O)N[C@H](Cc1ccc(Cl)cc1)C(=O)N[C@H](C(=O)N[C@@H](C)C(=O)N[C@@H](CC(C)C)C(N)=O)C(C)C
7 | 240 | 1900 |  |  |  | CCOC(=O)N[C@H](Cc1ccc(OC(C)=O)cc1)C(=O)N[C@H](C(=O)N[C@@H](C)C(=O)N[C@@H](CC(C)C)C(N)=O)C(C)C
8 | 270 | 7000 |  |  |  | CCOC(=O)N[C@H](CSCc1ccccc1)C(=O)N[C@H](C(=O)N[C@@H](C)C(=O)N[C@@H](CC(C)C)C(N)=O)C(C)C
9 |  |  |  |  | 1800 | CC(C)C[C@H](NC(=O)[C@H](C)NC(=O)[C@@H](NC(=O)[C@@H](N)Cc1ccccc1)C(C)C)C(N)=O (H-FVAL-NH2)
